Tests used:
MB231 cells = experiment: Xenograft in nude mice, tumor growth; assay type: in vivo, Balb/c nude mice; conditions: MB231 (ER-negative), α-MT in drinking water 2 mg/ml
Method: (§1) FIGS. 10A to 10D. In vivo efficacy of α-MT in the treatment of ER-positive breast cancer. ZR75.1 (FIG. 10A), MCF7 (FIG. 10B), and MB-231 (FIG. 10C) cells were injected subcutaneously (sc) into Balb/c nude mice (10×10^6 cells per injection site). For MCF7 cells, slow-releasing estrogen pellets were implanted to support the tumor growth. For each cell line, the control group received water with sucrose and the treatment group received α-MT (2 mg/ml) in water with sucrose. Tumor size was measured periodically. NS, not statistically significant (p>0.05); *, p<0.005; two-tailed unpaired Student's t test. In FIG. 10D, Balb/c nude mice were divided into two groups; the control group received water with sucrose and the treatment group received α-MT (2 mg/ml) in water with sucrose for 2 weeks. Mice were then bled and α-MT in plasma was determined by HPLC. Xenograft in nude mice. Human breast cancer cells (ZR75.1, MCF7, and MB231) were injected s.c. close to the lower mammary gland on the right side of Balb/c nude mice (10×10^6 cells per injection site). Only for MCF7 cells, slow-releasing estrogen pellets were implanted to support the tumor growth. Implantation of estrogen pellets was done as follows. […] Tumor size in control and treatment groups was measured periodically by caliper and […] was calculated using the formula (width^2×length)/2.

ZR75.1 cells = experiment: Xenograft in nude mice, tumor growth; assay type: in vivo, Balb/c nude mice; conditions: ZR75.1 (ER-positive), α-MT in drinking water 2 mg/ml
Method: as §1

[1] = test system: mTOR in SLC6A14-negative cells (MB231); experiment: mTOR activity by western blot (phosphorylation of S6 and S6 kinase); assay type: cell-based, human; conditions: α-MT 2.5 mM, 24, 48 or 72 h
Method: (§2) FIGS. 9A to 9D. Influence of α-MT on mTOR activity In FIG. 9A, MCF7 and MB231 cells were treated without or with α-MT (2.5 mM) for 24 h, 48 h, or 72 h, and then the cell lysates were used for western blot. Influence of α-MT with or without 3-MA on cell death. In FIG. 9B, MCF7, MB231, and MCF10A cells were treated for 48 h without or with α-MT (2.5 mM), 3-MA (10 mM), or α-MT (2.5 mM) plus 3-MA (10 mM), and then analyzed for cell death by propidium iodide (PI) staining and FACS-based cell cycle analysis. In FIG. 9C, MCF7 cells were treated for 48 h without or with α-MT (2.5 mM), 3-MA (10 mM), or α-MT (2.5 mM) plus 3-MA (10 mM), and then analyzed for apoptotic cell death by annexin V labeling. In FIG. 9D, MCF7 and MB231 cells were treated without or with 2.5 mM α-MT for 24 h, 48 h, or 72 h. Cell lysates were then used for western blot analysis of lamin A degradation product using an antibody that recognizes specifically the proteolytic cleavage product. β-Actin was used as an internal control.

mTOR in MCF7 cells = experiment: as above; assay type: cell-based, human; conditions: MCF7, α-MT 2.5 mM, 24, 48 or 72 h
Method: as §2

MCF7 cells = experiment: ASNS and CHOP mRNA by RT-PCR as readout for amino acid deprivation; assay type: cell-based, human
Method: FIGS. 6A to 6C. Effects of SLC6A14 blockade with α-MT in breast cancer cells. In FIG. 6A, MCF10A (a non-malignant mammary epithelial cell line), MCF7 (an ER-positive breast cancer cell line), and MB231 (an ER-negative breast cancer cell line) cells were treated with or without 2.5 mM α-MT for 24, 48, or 72 h and then used for analysis of asparagine synthetase (ASNS) and CHOP mRNA levels. In FIG. 6B, MCF7, MB231 and MCF10A cells were treated with or without 2.5 mM α-MT for 48 h and then used for immunocytochemical analysis of the constitutively expressed LC-3. In FIG. 6C, MCF7 cells were treated with (“b” and “c”) or without (“a”) α-MT (2.5 mM) for 48 h and then used for electron microscopy. Arrows indicate sequestration of cytoplasm and organelles in pre-autophagosomes and autophagosome, and the asterisk indicates condensed chromatin. N, nucleus. FIGS. 8A and 8B. Influence of α-MT on ASNS and CHOP mRNA levels in control MCF7 cells and in MCF7 cells with shRNA-induced silencing of SLC6A14. In FIG. 8A, five different SLC6A14-specific shRNAs were tested in MCF7 cells using a lentivirus-based system to monitor their efficacy to silence SLC6A14. SLC6A14 mRNA levels were measured by RT-PCR with GAPDH as an internal control. c, control. In FIG. 8B, SLC6A14 was silenced in MCF7 cells with shRNA-4 using a lentivirus-based system and then treated without or with α-MT (2.5 mM, 48 h). RNA isolated from the cells was then used for RT-PCR to monitor the levels of asparagine synthetase (ASNS) and CHOP mRNAs. FIG. 11. Estrogen-dependent suppression of the efficacy of α-MT to induce ASNS and CHOP expression in MCF7 cells. MCF7 cells were cultured in a phenol red-free medium in the absence or presence of estradiol (E2, 10 nM) for 24 h and then treated without or with α-MT (2.5 mM, 24 h). The cells were then used for analysis of SLC6A14, asparagine synthetase (ASNS), and CHOP mRNA levels by RT-PCR. Hypoxanthine/guanine phosphoribosyltransferase-1 (HPRT1) mRNA levels were used as an internal control. RT-PCR. Total RNA was isolated using TRIZOL™ (Invitrogen). 2 μg of RNA was reverse transcribed using the GeneAmp PCR System (Applied Biosystems, Branchburg, N.J.). PCR reaction was performed under optimal conditions specific for each of the primer pairs. GAPDH (glyceraldehyde-3-phosphate dehydrogenase) or HPRT1 (hypoxanthine/guanine phosphoribosyl transferase-1) were used as internal controls. PCR products were size-fractionated on agarose gel, stained with ethidium bromide and imaged using Alpha Imager (Santa Clara, Calif.). Densitometry was performed on PCR bands and normalized to the internal control. Normalized values were used to compare mRNA levels of target genes. Primers used for PCR were as follows.

With `CC(N)(Cc1c[nH]c2ccccc12)C(=O)O` (racemic) [α-MT, α-methyl-DL-tryptophan] the “tumor growth in xenograft” value (MB231 cells) was “did not affect the growth”, the “tumor growth in xenograft” value (ZR75.1 cells) was “reduced the growth” and the mTOR activity [1] was “not affected”. The “mTOR inhibition: phosphorylation of S6 and S6 kinase” value (mTOR in MCF7 cells) was “decreased phosphorylation”, the “levels of asparagine synthetase mRNA and CHOP mRNA” value (MCF7 cells; MCF7, α-MT 2.5 mM, 24, 48 or 72 h) was “increased” and the “α-MT-induced increase of asparagine synthetase and CHOP expression” value (MCF7 cells; MCF7 cells transfected with vector carrying shRNA #4 (SLC6A14 silenced), α-MT 2.5 mM, 48 h) was “markedly attenuated”. For the same molecule, the “magnitude of α-MT-induced asparagine synthetase and CHOP expression” value (MCF7 cells; MCF7 cells treated with estradiol 10 nM, phenol red-free medium, α-MT 2.5 mM, 24 h) was “significantly reduced”, the “expression levels of asparagine synthetase and CHOP” value (MCF7 cells; MCF7 control cells transfected with empty vector, α-MT 2.5 mM, 48 h) was “increased” and the “expression of asparagine synthetase and CHOP” value (MCF7 cells; MCF7 control cells, phenol red-free medium, absence of estradiol, α-MT 2.5 mM, 24 h) was “induced the expression”.
